According to PubChem BioAssay AID330 (DTP/NCI, 2004):
Several values for one entry are separate records, joined by “and”; a condition that tells them apart may be missing. Equal entries are not always repeated. Toxic doses and inconclusive results are not listed. How the source made its calls: active means survival T/C of 150% or more; inactive means T/C below 125% in these data.

System: P388 leukemia ip, CD2F1 mice, survival T/C
Test: NCI In Vivo Anticancer Drug Screen. Data for tumor model P388 Leukemia (intraperitoneal) in CD2F1 (CDF1) mice
Conditions: endpoint: median survival time, higher = longer survival
In short: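 Mice carrying the transplanted tumor received test compound or vehicle. Survival was recorded in each group, and the value is the treated-group measurement divided by that of the vehicle-treated control group.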

[1] = dose: 25.0 mg/kg/injection, schedule: Q01DX009 (ip), vehicle: saline
[2] = dose: 50.0 mg/kg/injection, schedule: Q01DX009 (ip), vehicle: saline
[3] = dose: 100.0 mg/kg/injection, schedule: Q01DX009 (ip), vehicle: saline
[4] = dose: 200.0 mg/kg/injection, schedule: Q01DX009 (ip), vehicle: saline
[5] = dose: 12.5 mg/kg/injection, schedule: Q01DX009 (ip), vehicle: saline with Tween-80
[6] = dose: 50.0 mg/kg/injection, schedule: Q01DX005 (ip), vehicle: Klucel (hydroxypropylcellulose) (HPC)
[7] = dose: 100.0 mg/kg/injection, schedule: Q01DX005 (ip), vehicle: Klucel (hydroxypropylcellulose) (HPC)
[8] = dose: 200.0 mg/kg/injection, schedule: Q01DX005 (ip), vehicle: Klucel (hydroxypropylcellulose) (HPC)
[9] = dose: 12.5 mg/kg/injection, schedule: Q01DX009 (ip), vehicle: Klucel (hydroxypropylcellulose) (HPC)
[10] = dose: 25.0 mg/kg/injection, schedule: Q01DX009 (ip), vehicle: Klucel (hydroxypropylcellulose) (HPC)
[11] = dose: 50.0 mg/kg/injection, schedule: Q01DX009 (ip), vehicle: Klucel (hydroxypropylcellulose) (HPC)
[12] = dose: 50.0 mg/kg/injection, schedule: Q01DX009 (ip), vehicle: saline with Tween-80
[13] = dose: 100.0 mg/kg/injection, schedule: Q01DX009 (ip), vehicle: saline with Tween-80
[14] = dose: 200.0 mg/kg/injection, schedule: Q01DX009 (ip), vehicle: saline with Tween-80
[15] = dose: 60.0 mg/kg/injection, schedule: Q01DX005 (ip), vehicle: saline with Tween-80
[16] = dose: 120.0 mg/kg/injection, schedule: Q01DX005 (ip), vehicle: saline with Tween-80
[17] = dose: 240.0 mg/kg/injection, schedule: Q01DX005 (ip), vehicle: saline with Tween-80
[18] = dose: 25.0 mg/kg/injection, schedule: Q01DX009 (ip), vehicle: saline with Tween-80
[19] = dose: 60.0 mg/kg/injection, schedule: Q01DX005 (ip), vehicle: Klucel (hydroxypropylcellulose) (HPC)
[20] = dose: 120.0 mg/kg/injection, schedule: Q01DX005 (ip), vehicle: Klucel (hydroxypropylcellulose) (HPC)
[21] = dose: 100.0 mg/kg/injection, schedule: Q01DX009 (ip), vehicle: Klucel (hydroxypropylcellulose) (HPC)
[22] = dose: 200.0 mg/kg/injection, schedule: Q01DX009 (ip), vehicle: Klucel (hydroxypropylcellulose) (HPC)

Measured: T/C

O=C(O)c1cc(O)ccc1O
inactive: [1] 104 % of control | [2] 90 % of control | [3] 97 % of control | [4] 94 % of control

CCOC(=O)c1sc(SSc2sc(C(=O)OCC)c(C)c2[N+](=O)[O-])c([N+](=O)[O-])c1C
inactive: dose: 1.56 mg/kg/injection, schedule: Q01DX009 (ip), vehicle: saline with Tween-80 94 % of control | dose: 3.12 mg/kg/injection, schedule: Q01DX009 (ip), vehicle: saline with Tween-80 101 % of control | dose: 6.25 mg/kg/injection, schedule: Q01DX009 (ip), vehicle: saline with Tween-80 93 % of control | [5] 88 % of control | dose: 25.0 mg/kg/injection, schedule: Q04DX003 (ip), vehicle: saline with Tween-80 102 % of control | dose: 50.0 mg/kg/injection, schedule: Q04DX003 (ip), vehicle: saline with Tween-80 93 % of control | dose: 100.0 mg/kg/injection, schedule: Q04DX003 (ip), vehicle: saline with Tween-80 86 % of control and 97 % of control

Cc1cc2cc3c4c(nn5cnnc5c4c2o1)-c1ccccc1CC3
inactive: [6] 101 % of control | [7] 104 % of control | [8] 98 % of control

C=C1CC(O)C2C(=C)C(=O)OC2C2C(C)C(=O)CC12 (stereo not given)
inactive: dose: 6.25 mg/kg/injection, schedule: Q01DX009 (ip), vehicle: Klucel (hydroxypropylcellulose) (HPC) 112 % of control | [9] 107 % of control | [10] 115 % of control | [11] 116 % of control

COC(NC(N)=O)C(=O)O (stereo not given)
inactive: [12] 99 % of control | [13] 99 % of control | [14] 99 % of control

CC(=O)OCCN1CCOC(O)(c2cccc(C(F)(F)F)c2)C1 (stereo not given)
inactive: [15] 115 % of control | [16] 108 % of control | [17] 113 % of control

C=C(C)c1nc(N)nc(NC)n1
inactive: dose: 100.0 mg/kg/injection, schedule: Q04DX002 (ip), vehicle: Klucel (hydroxypropylcellulose) (HPC) 98 % of control | dose: 200.0 mg/kg/injection, schedule: Q04DX002 (ip), vehicle: Klucel (hydroxypropylcellulose) (HPC) 107 % of control | dose: 400.0 mg/kg/injection, schedule: Q04DX002 (ip), vehicle: Klucel (hydroxypropylcellulose) (HPC) 98 % of control

O=[N+]([O-])c1cnccc1-n1nnc2ccccc21
inactive: [15] 96 % of control | [16] 96 % of control | [17] 104 % of control

Nc1cc2ncccc2c2ccccc12
inactive: [2] 100 % of control and 98 % of control | [3] 109 % of control | [4] 106 % of control and 89 % of control

COC(=O)C1(CC(=O)c2ccccn2)NC(=S)NC(=O)C1C#N (stereo not given)
inactive: [15] 100 % of control | [16] 97 % of control | [17] 97 % of control

Cc1ccc2nc(N(C)C)[nH]c2c1
inactive: dose: 50.0 mg/kg/injection, schedule: Q01DX005 (ip), vehicle: other 105 % of control | dose: 100.0 mg/kg/injection, schedule: Q01DX005 (ip), vehicle: other 109 % of control

NC(=S)c1ccccc1N=Cc1ccccn1
inactive: dose: 100.0 mg/kg/injection, schedule: Q04DX003 (ip), vehicle: Klucel (hydroxypropylcellulose) (HPC) 100 % of control | dose: 200.0 mg/kg/injection, schedule: Q04DX003 (ip), vehicle: Klucel (hydroxypropylcellulose) (HPC) 107 % of control

CCCCOc1ncnc2nc[nH]c12
inactive: [6] 103 % of control | [7] 103 % of control

Cc1nc2nc(Cl)c(Cl)nc2[nH]1
inactive: [18] 100 % of control | [12] 104 % of control | [13] 104 % of control

CN(CN(C)N=Nc1ccc(Br)cc1)CN(C)N=Nc1ccc(Br)cc1
inactive: [19] 100 % of control | [20] 92 % of control

[Br][Sn]([Br])([S]c1ccccn1)[S]c1ccccn1
inactive: [5] 111 % of control | [18] 103 % of control | [12] 100 % of control and 95 % of control | [14] 89 % of control

COC(=O)Nn1cc(C(C(C)=O)C(C)=O)c(C(C)=O)c1C
inactive: [6] 99 % of control | [7] 89 % of control

Oc1ccc(N=Nc2nccs2)c(O)c1
inactive: [12] 96 % of control | [13] 93 % of control | [14] 99 % of control

NS(=O)(=O)c1ccc(NC(=S)Nc2ccccc2C(F)(F)F)cc1
inactive: dose: 50.0 mg/kg/injection, schedule: Q01DX009 (ip), vehicle: gum acacia 92 % of control | dose: 100.0 mg/kg/injection, schedule: Q01DX009 (ip), vehicle: gum acacia 109 % of control | dose: 200.0 mg/kg/injection, schedule: Q01DX009 (ip), vehicle: gum acacia 100 % of control

O=C(CC1(O)C(=O)Nc2ccccc21)c1ccccn1 (stereo not given)
inactive: [11] 102 % of control | [21] 97 % of control | [22] 100 % of control

CC1C2Cc3ccc(O)cc3C1(C)CCN2Cc1ccoc1 (stereo not given)
inactive: [2] 96 % of control | [3] 99 % of control

CCCC1(CC(=O)O)OCCc2c1[nH]c1ccccc21 (stereo not given)
inactive: [11] 102 % of control | [21] 108 % of control

COC(=O)C1CCCC(C(=O)O)C1 (stereo not given)
inactive: dose: 100.0 mg/kg/injection, schedule: Q01DX002 (ip), vehicle: saline with Tween-80 102 % of control | dose: 200.0 mg/kg/injection, schedule: Q01DX002 (ip), vehicle: saline with Tween-80 102 % of control | dose: 400.0 mg/kg/injection, schedule: Q01DX002 (ip), vehicle: saline with Tween-80 117 % of control

CN(C)C=C1C=c2cc(C(=O)c3ccccc3)c(=O)c(C(=O)c3ccccc3)cc2=C1
inactive: dose: 100.0 mg/kg/injection, schedule: Q01DX001 (ip), vehicle: saline 108 % of control | dose: 200.0 mg/kg/injection, schedule: Q01DX001 (ip), vehicle: saline 108 % of control | dose: 400.0 mg/kg/injection, schedule: Q01DX001 (ip), vehicle: saline 97 % of control

CCN1CCCC(Nc2cc(C)nc(Nc3nc4cc(Cl)c(Cl)cc4[nH]3)n2)C1 (stereo not given)
inactive: [9] 90 % of control

CC1CCCC2=C1C(O)c1cccc(N)c1C2O (stereo not given)
inactive: [6] 102 % of control | [7] 96 % of control | [8] 88 % of control

O=P(c1ccccc1)(c1ccccc1)c1ccccc1.[CH3][Sn]([Cl])([Cl])[c]1ccccc1
inactive: dose: 12.5 mg/kg/injection, schedule: Q04DX003 (ip), vehicle: saline 100 % of control and 118 % of control | dose: 25.0 mg/kg/injection, schedule: Q04DX003 (ip), vehicle: saline 100 % of control and 104 % of control | dose: 50.0 mg/kg/injection, schedule: Q04DX003 (ip), vehicle: saline 100 % of control and 101 % of control | dose: 100.0 mg/kg/injection, schedule: Q04DX003 (ip), vehicle: saline 100 % of control and 110 % of control

CNC(=O)Nc1[nH]c(=O)ncc1I
inactive: dose: 30.0 mg/kg/injection, schedule: Q01DX005 (ip), vehicle: Klucel (hydroxypropylcellulose) (HPC) 100 % of control | [19] 96 % of control | [20] 117 % of control

O=c1oc2c(c(=O)n1-c1ccccc1)CC1(CCCCC1)C2
inactive: [11] 103 % of control | [21] 113 % of control | [22] 105 % of control

Cc1nc2ccc(O)cc2c(C(=O)O)c1C(=O)O
inactive: dose: 50.0 mg/kg/injection, schedule: Q01DX005 (ip), vehicle: saline with Tween-80 100 % of control | dose: 100.0 mg/kg/injection, schedule: Q01DX005 (ip), vehicle: saline with Tween-80 96 % of control | dose: 200.0 mg/kg/injection, schedule: Q01DX005 (ip), vehicle: saline with Tween-80 104 % of control

CC(=O)/C=C/N1CCOCC1
inactive: [2] 119 % of control | [3] 98 % of control | [4] 103 % of control

NC(CSc1nc2ccccn2c1[N+](=O)[O-])C(=O)O (stereo not given)
inactive: [9] 98 % of control | [10] 100 % of control | [11] 99 % of control and 100 % of control

COC(=O)C1C2c3ccccc3C(c3ccccc32)C1(C)C(=O)OC (stereo not given)
inactive: [6] 96 % of control | [7] 102 % of control | [8] 102 % of control

O=C1Cn2c(c3c(nc2=O)CCCC3)N1
inactive: [15] 100 % of control | [16] 99 % of control | [17] 100 % of control

CC(=O)OCC1OC([n+]2cccc(C(N)=O)c2)C(OC(C)=O)C(OC(C)=O)C1OC(C)=O (stereo not given)
inactive: [1] 100 % of control | [2] 101 % of control | [3] 100 % of control | [4] 103 % of control
